Laboratory results as given in patent US8236849B2, “Model for glutamate racemase inhibitors and glutamate racemase antibacterial agents” (Ohio Northern University, priority 2008, dated 2012).

Tested on: S. pneumoniae R6 strain
Assay: Whole-cell assay on blood agar plates, inhibition zones
Format: cell-based
Conditions: 0.5, 0.75 and 1.0 μg/mL, data not shown
Description: Whole-cell Assays: Selected compounds were assayed against S. pneumoniae on blood agar plates as shown on FIG. 3.

| Compound | antibacterial activity (inhibition zones compared to DMSO) |
| --- | --- |
| Cc1ccc(C(=O)CC(NCCc2c[nH]c3ccccc23)C(=O)O)cc1 (centres unmarked) [Compound A, 2-(2-(1H-indol-3-yl)ethylamino)-4-oxo-4-p-tolylbutanoic acid] | weaker antibacterial activity than Compound B |
| O=C(CC(NCCc1c[nH]c2ccccc12)C(=O)O)c1ccc(F)cc1 (centres unmarked) [Compound B, 2-(2-(1H-indol-3-yl)ethylamino)-4-(4-fluorophenyl)-4-oxobutanoic acid] | significant antibacterial activity |
